Consider eight compounds from US12428406B2 (PMV Pharmaceuticals, Inc., priority 2019, dated 2025).

For this test, the target named is T1, p53 Y220C (Homo sapiens, UniProt P04637, Y220C).
T1 construct: The recombinant protein was a truncation mutant containing only amino acids 94-312 of p53; made in house; host or cells: E. coli
T1 sequence (P04637 94-312, change not shown): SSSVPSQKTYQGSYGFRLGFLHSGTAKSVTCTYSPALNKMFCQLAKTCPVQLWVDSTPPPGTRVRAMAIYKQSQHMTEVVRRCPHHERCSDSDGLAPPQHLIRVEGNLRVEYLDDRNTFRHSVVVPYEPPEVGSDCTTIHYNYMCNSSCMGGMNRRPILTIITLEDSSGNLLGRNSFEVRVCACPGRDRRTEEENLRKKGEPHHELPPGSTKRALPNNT
Nature of the test: In vitro DNA binding activity assay (HTRF / TR-FRET): stabilization of p53 Y220C and increase of its DNA binding activity. It counts as biochemical. Particulars: recombinant His-tagged p53 Y220C DNA binding domain (aa 94-312), biotin-labeled consensus DNA, incubated at 27° C. or 29° C. for 60 min. As to the method: The ability of a compound of the invention to stabilize p53 Y220C and increase the DNA binding activity of p53 Y220C was measured by a homogeneous time-resolved fluorescence (HTRF) assay. Recombinant His-tagged p53 Y220C used in the HTRF assay was expressed in the bacterium E. coli.
The binding of the recombinant His-tagged p53 Y220C protein and the biotin-labeled consensus DNA was measured using fluorescence resonance energy transfer (FRET). For the FRET assay, the binding between the p53 mutant and the DNA sequence was measured by detecting the fluorescence of the interaction between an anti-His antibody conjugated to allophycocyanin (APC) and streptavidin conjugated to europium to detect the biotin-labeled DNA.
The test compounds were prepared as 4.5 mM stock solutions in dimethyl sulfoxide (DMSO). The compounds of the disclosure were used to test the stabilization of p53 Y220C and increase in DNA binding activity of p53 Y220C. The stock solutions were then serially diluted 3-fold in DMSO, and 1.2 μL of the diluted solutions was added to each well of a 384-well polypropylene black plate.
The test and control samples were spun at 1200 rpm for 1 minute and incubated at room temperature for 15 minutes. […] The plates were spun at 1200 rpm for 1 minute and incubated at room temperature for 20 minutes. The assay signals were monitored by reading excitation at 340 nm, and emission fluorescence at 615 nm and 665 nm on a plate reader.
The percentage of activation of protein DNA binding in the presence of a compound of the invention compared to the absence of the compound was denoted by a SC150 value, which indicated the concentration of the compound required to increase the DNA binding activity by 50%. The SC150 values were calculated using either Prism™ or ActivityBase™.
(In general: TR-FRET usually uses a lanthanide donor and a delayed reading to cut background.)
Consider `CCC(=O)N1CC[C@H](Nc2cccc3c2cc(C#CCNc2ccc(S(C)(=O)=O)cc2OC)n3CC(F)(F)F)[C@H](F)C1` [Compound 865A, 1-[(3R,4S)-3-fluoro-4-[(2-{3-[(4-methanesulfonyl-2-methoxyphenyl)amino]prop-1-yn-1-yl}-1-(2,2,2-trifluoroethyl)-1H-indol-4-yl)amino]piperidin-1-yl]propan-1-one], for which the “SC150 (concentration of the compound required to increase the DNA binding activity by 50%)” value is “+ (+ = 0 μM ≤ SC150 < 0.05 μM)”. The same measure for `NS(=O)(=O)c1ccc(NCC#Cc2cc3c(N[C@H]4CC[C@H](N5CC6(COC6)C5)CC4)cccc3n2CC(F)(F)F)c(OCF)c1` [Compound 261A, 3-(fluoromethoxy)-4-{[3-(4-{[(1R,4R)-4-{2-oxa-6-azaspiro[3.3]heptan-6-yl}cyclo-hexyl]amino}-1-(2,2,2-trifluoroethyl)-1H-indol-2-yl)prop-2-yn-1-yl]amino}benzene-1-sulfonamide]: “+ (+ = 0 μM ≤ SC150 < 0.05 μM)”; for `CN(C)c1cc(S(C)(=O)=O)ccc1OCC#Cc1cc2c(N[C@H]3CC[C@H](N(C)C)CC3)cccc2n1CC(F)(F)F` [Compound 112A, (1R,4R)-N^4-(2-{3-[2-(dimethylamino)-4-methanesulfonyl-phenoxy]prop-1-yn-1-yl}-1-(2,2,2-trifluoroethyl)-1H-indol-4-yl)-N^1,N^1-dimethylcyclohexane-1,4-diamine]: “+++ (+++ = 0.1 μM ≤ SC150 < 0.2 μM)”; for `CN(C)[C@H]1CC[C@H](Nc2cccc3c2cc(C#CCOc2ccc(S(C)(=O)=O)cc2N)n3CC(F)(F)F)CC1` [Compound 100A, (1R,4R)-N^4-{2-[3-(2-amino-4-methane-sulfonylphenoxy)prop-1-yn-1-yl]-1-(2,2,2-trifluoroethyl)-1H-indol-4-yl}-N^1,N^1-dimethylcyclohexane-1,4-diamine]: “+ (+ = 0 μM ≤ SC150 < 0.05 μM)”. Turning to `COc1cc(S(=O)(=O)N2CCN(C(C)=O)CC2)ccc1NCC#Cc1cc2c(NC3CCS(=O)(=O)CC3)cccc2n1CC(F)(F)F` [Compound 1045A, 4-({2-[3-({4-[(4-acetylpiperazin-1-yl)sulfonyl]-2-methoxyphenyl}amino)prop-1-yn-1-yl]-1-(2,2,2-trifluoroethyl)-1H-indol-4-yl}amino)-1λ^6-thiane-1,1-dione], the “SC150 (concentration of the compound required to increase the DNA binding activity by 50%)” value was “+ (+ = 0 μM ≤ SC150 < 0.05 μM)”. The same measure for `COc1cc(S(N)(=O)=O)ccc1NCC#Cc1cc2c(N[C@H]3CCN(C[C@H](COC(C)=O)OC(C)=O)C[C@H]3F)cccc2n1CC(F)(F)F` [Compound 888A, (2R)-1-(acetyloxy)-3-[(3R,4S)-3-fluoro-4-[(2-{3-[(2-methoxy-4-sulfamoylphenyl)amino]prop-1-yn-1-yl}-1-(2,2,2-trifluoroethyl)-1H-indol-4-yl)amino]piperidin-1-yl]propan-2-yl acetate]: “+ (+ = 0 μM ≤ SC150 < 0.05 μM)”; for `CS(=O)(=O)c1ccc(NCC#Cc2cc3c(N[C@H]4CC[C@H](N5CCOCC5)CC4)cccc3n2CC(F)(F)F)c(OCC#N)c1` [Compound 185A, 2-(5-methanesulfonyl-2-{[3-(4-{[(1R,4R)-4-(morpholin-4-yl)cyclohexyl]amino}-1-(2,2,2-trifluoroethyl)-1H-indol-2-yl)prop-2-yn-1-yl]amino}phenoxy)acetonitrile]: “+ (+ = 0 μM ≤ SC150 < 0.05 μM)”. The same measure for `COc1cc(S(C)(=O)=O)ccc1NCC#Cc1cc2c(N[C@H]3CCN(C(C)C)C[C@H]3F)cccc2n1CC(F)(F)F` [Compound 803A]: “+ (+ = 0 μM ≤ SC150 < 0.05 μM)”.
